Laboratory results: PubChem BioAssay (NCI)
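Five concentrations, 48 hours, 96-well plates. GI50 is the concentration that inhibits growth by half. TGI denotes the concentration required for complete inhibition of growth.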

Experiments:
Assay in all cases: NCI-60 cell line screen, 48 h
786-0 renal = system: 786-0 renal
A498 renal = system: A498 renal
A549 NSCLC = system: A549 NSCLC
ACHN renal = system: ACHN renal
BT-549 breast = system: BT-549 breast
CAKI-1 renal = system: CAKI-1 renal
CCRF-CEM leukemia = system: CCRF-CEM leukemia
COLO 205 colon = system: COLO 205 colon
DU-145 prostate = system: DU-145 prostate
EKVX NSCLC = system: EKVX NSCLC
HCC-2998 colon = system: HCC-2998 colon
HCT-116 colon = system: HCT-116 colon
HCT-15 colon = system: HCT-15 colon
HL-60(TB) leukemia = system: HL-60(TB) leukemia
HOP-62 NSCLC = system: HOP-62 NSCLC
HOP-92 NSCLC = system: HOP-92 NSCLC
HS 578T breast = system: HS 578T breast
HT29 colon = system: HT29 colon
IGROV1 ovarian = system: IGROV1 ovarian
K-562 leukemia = system: K-562 leukemia
KM12 colon = system: KM12 colon
LOX IMVI melanoma = system: LOX IMVI melanoma
M14 melanoma = system: M14 melanoma
MALME-3M melanoma = system: MALME-3M melanoma
MCF7 breast = system: MCF7 breast
MDA-MB-231 breast = system: MDA-MB-231 breast
MDA-MB-435 = system: MDA-MB-435
MOLT-4 leukemia = system: MOLT-4 leukemia
NCI-H226 lung = system: NCI-H226 lung
NCI-H23 lung = system: NCI-H23 lung
NCI-H460 lung = system: NCI-H460 lung
NCI-H522 lung = system: NCI-H522 lung
NCI/ADR-RES ovarian = system: NCI/ADR-RES ovarian
OVCAR-3 ovarian = system: OVCAR-3 ovarian
OVCAR-4 ovarian = system: OVCAR-4 ovarian
OVCAR-5 ovarian = system: OVCAR-5 ovarian
OVCAR-8 ovarian = system: OVCAR-8 ovarian
PC-3 prostate = system: PC-3 prostate
RPMI-8226 leukemia = system: RPMI-8226 leukemia
RXF 393 renal = system: RXF 393 renal
SF-268 CNS = system: SF-268 CNS
SF-295 CNS = system: SF-295 CNS
SF-539 CNS = system: SF-539 CNS
SK-MEL-2 melanoma = system: SK-MEL-2 melanoma
SK-MEL-28 melanoma = system: SK-MEL-28 melanoma
SK-MEL-5 melanoma = system: SK-MEL-5 melanoma
SK-OV-3 ovarian = system: SK-OV-3 ovarian
SN12C renal = system: SN12C renal
SNB-19 CNS = system: SNB-19 CNS
SNB-75 CNS = system: SNB-75 CNS
SR leukemia = system: SR leukemia
SW-620 colon = system: SW-620 colon
T-47D breast = system: T-47D breast
TK-10 renal = system: TK-10 renal
U251 CNS = system: U251 CNS
UACC-257 melanoma = system: UACC-257 melanoma
UACC-62 melanoma = system: UACC-62 melanoma
UO-31 renal = system: UO-31 renal

With `COc1ccc(-c2nc3sccn3c2-c2ccnc(NCCNS(=O)(=O)c3ccc(C(F)(F)F)cc3)n2)cc1` the GI50 (786-0 renal) was 0.641 µM, the TGI (786-0 renal) was 11.3 µM and the GI50 (A498 renal) was 0.31 µM. For the same compound, the TGI (A498 renal) was 6.86 µM, the GI50 (A549 NSCLC) was 3.98 µM and the TGI (A549 NSCLC) was > 100 µM. The GI50 (ACHN renal) was 2.58 µM, the TGI (ACHN renal) was > 100 µM and the GI50 (BT-549 breast) was 0.707 µM. The TGI (BT-549 breast) was 5.94 µM, the GI50 (CAKI-1 renal) was 2.64 µM and the TGI (CAKI-1 renal) was > 100 µM. For the same compound, the GI50 (CCRF-CEM leukemia) was 0.37 µM, the TGI (CCRF-CEM leukemia) was > 100 µM and the GI50 (COLO 205 colon) was 3.29 µM. The TGI (COLO 205 colon) was > 100 µM, the GI50 (DU-145 prostate) was 1.53 µM and the TGI (DU-145 prostate) was > 100 µM. For the same compound, the GI50 (EKVX NSCLC) was 4.04 µM, the TGI (EKVX NSCLC) was > 100 µM and the GI50 (HCC-2998 colon) was 4.6 µM. The TGI (HCC-2998 colon) was > 100 µM, the GI50 (HCT-116 colon) was 0.729 µM and the TGI (HCT-116 colon) was 4.61 µM. The GI50 (HCT-15 colon) was 2.59 µM, the TGI (HCT-15 colon) was > 100 µM and the GI50 (HL-60(TB) leukemia) was 0.494 µM. The TGI (HL-60(TB) leukemia) was > 100 µM, the GI50 (HOP-62 NSCLC) was 13.7 µM and the TGI (HOP-62 NSCLC) was > 100 µM. For the same compound, the GI50 (HOP-92 NSCLC) was 0.153 µM, the TGI (HOP-92 NSCLC) was 2.51 µM and the GI50 (HS 578T breast) was 2.35 µM. The TGI (HS 578T breast) was > 100 µM, the GI50 (HT29 colon) was 2.45 µM and the TGI (HT29 colon) was > 100 µM. The GI50 (IGROV1 ovarian) was 3.18 µM, the TGI (IGROV1 ovarian) was > 100 µM and the GI50 (K-562 leukemia) was 0.411 µM. The TGI (K-562 leukemia) was > 100 µM, the GI50 (KM12 colon) was 1.36 µM and the TGI (KM12 colon) was 36.2 µM. It also gave a GI50 (LOX IMVI melanoma) of 3.26 µM, a TGI (LOX IMVI melanoma) of 19.2 µM and a GI50 (M14 melanoma) of 0.69 µM. For the same compound, the TGI (M14 melanoma) was 3.25 µM, the GI50 (MALME-3M melanoma) was 2.35 µM and the TGI (MALME-3M melanoma) was 5.22 µM. The GI50 (MCF7 breast) was 3.15 µM, the TGI (MCF7 breast) was > 100 µM and the GI50 (MDA-MB-231 breast) was 1.22 µM. For the same compound, the TGI (MDA-MB-231 breast) was 42.5 µM, the GI50 (MDA-MB-435) was 1.44 µM and the TGI (MDA-MB-435) was 5.88 µM. For the same compound, the GI50 (MOLT-4 leukemia) was 0.503 µM, the TGI (MOLT-4 leukemia) was > 100 µM and the GI50 (NCI-H226 lung) was 2.42 µM. The TGI (NCI-H226 lung) was 10.3 µM, the GI50 (NCI-H23 lung) was 3.56 µM and the TGI (NCI-H23 lung) was 62.3 µM. For the same compound, the GI50 (NCI-H460 lung) was 2 µM, the TGI (NCI-H460 lung) was 11.6 µM and the GI50 (NCI-H522 lung) was 2.81 µM. For the same compound, the TGI (NCI-H522 lung) was 17 µM, the GI50 (NCI/ADR-RES ovarian) was 3.12 µM and the TGI (NCI/ADR-RES ovarian) was > 100 µM. The GI50 (OVCAR-3 ovarian) was 2.03 µM, the TGI (OVCAR-3 ovarian) was > 100 µM and the GI50 (OVCAR-4 ovarian) was 1.99 µM. For the same compound, the TGI (OVCAR-4 ovarian) was 39.6 µM, the GI50 (OVCAR-5 ovarian) was 9.38 µM and the TGI (OVCAR-5 ovarian) was > 100 µM. The GI50 (OVCAR-8 ovarian) was 2.85 µM, the TGI (OVCAR-8 ovarian) was > 100 µM and the GI50 (PC-3 prostate) was 0.303 µM. For the same compound, the TGI (PC-3 prostate) was 3.34 µM, the GI50 (RPMI-8226 leukemia) was 0.626 µM and the TGI (RPMI-8226 leukemia) was 5.53 µM. The GI50 (RXF 393 renal) was 2.66 µM, the TGI (RXF 393 renal) was 63.2 µM and the GI50 (SF-268 CNS) was 1.41 µM. For the same compound, the TGI (SF-268 CNS) was 50.9 µM, the GI50 (SF-295 CNS) was 2.24 µM and the TGI (SF-295 CNS) was 5.58 µM. The GI50 (SF-539 CNS) was 2.55 µM, the TGI (SF-539 CNS) was 7.77 µM and the GI50 (SK-MEL-2 melanoma) was 3.04 µM. It also gave a TGI (SK-MEL-2 melanoma) of 9.26 µM, a GI50 (SK-MEL-28 melanoma) of 3.68 µM and a TGI (SK-MEL-28 melanoma) of 55.5 µM. It also gave a GI50 (SK-MEL-5 melanoma) of 1.24 µM, a TGI (SK-MEL-5 melanoma) of 2.52 µM and a GI50 (SK-OV-3 ovarian) of 4.44 µM. The TGI (SK-OV-3 ovarian) was > 100 µM, the GI50 (SN12C renal) was 0.688 µM and the TGI (SN12C renal) was 8.38 µM. For the same compound, the GI50 (SNB-19 CNS) was 3.77 µM, the TGI (SNB-19 CNS) was > 100 µM and the GI50 (SNB-75 CNS) was 1.98 µM. The TGI (SNB-75 CNS) was 10.7 µM, the GI50 (SR leukemia) was 0.972 µM and the TGI (SR leukemia) was > 100 µM. It also gave a GI50 (SW-620 colon) of 4.24 µM, a TGI (SW-620 colon) of 38.9 µM and a GI50 (T-47D breast) of 1.69 µM. For the same compound, the TGI (T-47D breast) was > 100 µM, the GI50 (TK-10 renal) was 2.87 µM and the TGI (TK-10 renal) was > 100 µM. The GI50 (U251 CNS) was 4.45 µM, the TGI (U251 CNS) was > 100 µM and the GI50 (UACC-257 melanoma) was 4.41 µM. The TGI (UACC-257 melanoma) was > 100 µM, the GI50 (UACC-62 melanoma) was 0.485 µM and the TGI (UACC-62 melanoma) was 3.4 µM. For the same compound, the GI50 (UO-31 renal) was 1.09 µM and the TGI (UO-31 renal) was > 100 µM.
